From BindingDB's records for doi:10.1111/j.1476-5381.1995.tb15923.x (Zeneca Pharmaceuticals, 1995)

Target: Adenosine receptor A2a (Rattus norvegicus, UniProt P30543)
Sequence (P30543 whole entry): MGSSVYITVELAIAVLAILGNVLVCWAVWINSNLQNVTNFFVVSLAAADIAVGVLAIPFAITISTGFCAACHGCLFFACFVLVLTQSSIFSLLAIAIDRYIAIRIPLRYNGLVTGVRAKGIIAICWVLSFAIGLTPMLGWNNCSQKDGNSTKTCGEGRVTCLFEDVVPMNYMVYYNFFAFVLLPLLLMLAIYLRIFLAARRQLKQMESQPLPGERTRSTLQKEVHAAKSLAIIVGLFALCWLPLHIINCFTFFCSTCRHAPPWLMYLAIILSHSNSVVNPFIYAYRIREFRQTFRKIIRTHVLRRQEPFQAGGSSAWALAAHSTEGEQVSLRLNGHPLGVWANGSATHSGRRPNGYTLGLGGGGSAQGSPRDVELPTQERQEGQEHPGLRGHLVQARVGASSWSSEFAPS

Ki [µM]	SMILES
> 10	Cn1c(=O)c2[nH]c(-c3ccccc3)nc2n(C)c1=O [1,3-Dimethyl-8-phenyl-3,9-dihydro-purine-2,6-dione]
> 10	Cn1c(=O)c2[nH]c(-c3ccc(S(=O)(=O)O)cc3)nc2n(C)c1=O [4-(1,3-Dimethyl-2,6-dioxo-2,3,6,7-tetrahydro-1H-purin-8-yl)-benzenesulfonic acid]
